One block for each compound: values may come before it.
Columns and labels:
human plasma = assay: Prothrombin time clotting assay; format: biochemical
Experimental: Human blood from healthy volunteers, both men and women, was collected in 50 mL conical plastic tubes containing 5 mL of 0.13 mol/L of buffered tri-sodium citrate. The blood was immediately chilled on ice and centrifuged at 2000×g for 20 minutes.
100 μL of human plasma was pre-warmed to 37° C. for 180 seconds before coagulation was initiated by the addition of 200 μL pre-warmed assay reagent (Thromboplastin-S, ISI 1.1, Biopool Umea, Sweden). The prothrombin time (PT) was determined on a mechanical coagulometer, coupled to a CR-A calculator, CR 10 printer and a PR60 heat block (KC 10A Amelung, Germany). Each clotting test was performed in duplicate.
In order to determine the relative potency of each inhibitor and a 50:50 mixture thereof, the concentration required to double the prothrombin time (IC50) was determined as follows: The ratio of prothrombin time in control plasma (PT0) to the prothrombin time in the presence of different inhibitor concentrations (PTinhibitor) were plotted against the inhibitor concentration (log transformed) and fitted to sigmoidal dose-response curves from which IC50 values were calculated according to the equation:
where y=(PTO)/(PT) with a range from 1 to 0; a=maximal range i.e. 1, when PTmela is equal to PT0; s=the slope of the dose-response curve, x=log concentration of inhibitor, IC50=the concentration of melagatran that doubles the prothrombin time. The calculations were processed on a PC using the software program GraFit® Erithacus Version 3.0 (Robin Leatherbarrow, Imperial Collage of Science, Technology & Medicine, London).

IC50 (human plasma; from sigmoidal dose-response curves of PT0/PTinhibitor, human plasma, total concentration for the mixture, read-out: IC50 (concentration required to double the prothrombin time)): 0.74 µM
Structure (SMILES): N=C(N)c1ccc(CNC(=O)[C@@H]2CCN2C(=O)[C@H](NCC(=O)O)C2CCCCC2)cc1 [melagatran, HOOC—CH2—(R)Cgl-Aze-Pab-H]
Prothrombin time (human plasma; plasma conc. 0.23 μmol/L): 18.1 s | Prothrombin time (human plasma; plasma conc. 0.47 μmol/L): 21.8 s | Prothrombin time (human plasma; plasma conc. 0.70 μmol/L): 25.4 s | Prothrombin time (human plasma; plasma conc. 0.93 μmol/L): 32.6 s | Prothrombin time (human plasma; plasma conc. 1.17 μmol/L): 43.2 s | Prothrombin time (human plasma; plasma conc. 1.40 μmol/L): 53.8 s | Prothrombin time (human plasma; plasma conc. 1.63 μmol/L): 65.3 s | Prothrombin time (human plasma; plasma conc. 1.86 μmol/L): 76.3 s | Prothrombin time (human plasma; plasma conc. 2.10 μmol/L): 87.2 s | PT (human plasma; single inhibitor at 2.33 μmol/L in human platelet poor plasma): 95.2 s

melting point: 265 to 267 °C
Structure (SMILES): O=C(c1ccc(-c2cc[n+]([O-])cc2)cc1)N1CCN(S(=O)(=O)c2cc3cc(Cl)ccc3[nH]2)CC1 [Example 1, 4-{4-[4(5-Chloroindol-2-ylsulfonyl)piperazine-1-carbonyl]phenyl}-pyridine-1-oxide]

Reference: US20030158120A1, “Combination product comprising melagatran and a factor xa inhibitor” (AstrZeneca AB, priority 2000, published 2003)
